Source: patent publication US5968920A, “Compounds having a benzisoselen-azoline and -azine structure, method for preparing same and therapeutic uses thereof” (Oxis Isle of Man, Limited, priority 1994, dated 1999)

Columns and labels:
endothelial cells [1] = assay: Protection of endothelial cells against hydrogen peroxide (NO production after bradykinin); type: cell-based; details: Homo sapiens, Endothelial cell; compound 1 μM; hydrogen peroxide 100 μM; bradykinin 100 nM; read-out: recovery of the normal response to bradykinin (NO production)
Method: Human endothelial cells were cultivated at 37° C. in 6-hole plates or Petri dishes (35 mm diameter) in an atmosphere of saturated humidity constituted by a gaseous mixture of 95% air and 5% of CO2. The culture medium was constituted by a M 199 medium, pH=7.4, containing 20% of foetal calf serum, 2 mM of L-glutamine, 100 U/ml of penicillin and 100 μg/ml of streptomycin.
When the cells were confluent, they were incubated in the presence or absence (control) of a compound with general structure I in culture medium at a concentration of between 1 and 10 μM, all other conditions being the same. After washing the cells three successive times with a PBS buffer, they were incubated in the presence or absence (control) of hydrogen peroxide, 500 or 100 μM, in the reaction medium. The cells were then washed three times with PBS buffer. They were then stained using the May-Grunwald/Giemsa procedure which caused the nucleus to stain purple and the cytoplasm, light violet, or they were used to measure their ability to produce nitric oxide NO. (EDRF). The production of NO. by endothelial cells was made using a NO. electrode, after stimulation with bradykinin, 100 nM, using the procedure described by H. Tsukahara et al., (Biochem. and Biophys. Res. Comm., (1993), 193, pp 722-729).
Treatment with 100 μM hydrogen peroxide had no significant effect on cellular density. […]

endothelial cells [2] = assay: Absence of toxicity in a culture of endothelial cells in vitro (MTT); type: cell-based, human; details: no more than 10 μM, 24 or 48 hours
Method: Human endothelial cells were cultivated under the same conditions as those described for Example 18, in 96-hole plates.
When the cells were near confluence, they were incubated or not (control) for 24 or 48 hours in the presence of BXT-51056 or BXT-51072 incorporated into the culture medium at a concentration of no more than 10 μM. After 24 or 48 hours, the cells were rinsed three times with a PBS buffer and the viability of the cells was measured using the bromide of 3-(4,5-dimethylthiazol-2-yl)-2,5-diphenyl-2H-tetrazolium (MTT).

[3] = Glutathione peroxidase activity, t-BuOOH as hydroperoxide; type: biochemical; details: compound 20 μM, pH = 7.3, 37° C., [GSH] = 2 mM
Method: (§1) To 1.5 ml of HEPES buffer, 50 mM, pH=7.3, containing 0.2 mM of DTPA, 0.144 mM of NADPH, 2.2 mM of reduced glutathione and 1.1 U/ml of glutathione disulfide reductase, pre-equilibrated for 2 minutes at 37° C., 100 μl of an ethanolic mother solution of the compound to be tested or 100 μl of absolute ethanol (blank) was added. Each compound was tested at a final concentration of 20 μM.
(§2) Subsequently, 50 μl of the following was added:
tertiobutyl hydroperoxide (t-BuOOH), 6.6 mM in ultrapure water;
(§3) or the hydroperoxide of linoleic acid (18:2-OOH) prepared using soya lipoxygenase (see M. O. Funk et al., Lipids, (1976), 11, pp 113-117), 3.3 mM in a water/methanol mixture, 85/15 (V/V). The glutathione peroxidase activity was measured at 37° C. by measuring the reduction in absorbance at 340 nm over 5 minutes. The initial enzymatic rate or activity was proportional to the slope of the plot of absorbance against time.
(§4) They are expressed in nmoles of hydroperoxide reduced per minute.

[4] = Glutathione peroxidase activity, hydrogen peroxide; type: biochemical; details: compound 20 μM, pH = 7.3, 37° C., [GSH] = 2 mM
Method: as §1, §2
or hydrogen peroxide (H2 O2), 1.6 mM in ultrapure water;
as §3, §4

[5] = Glutathione peroxidase activity, linoleic acid hydroperoxide; type: biochemical; details: compound 20 μM, pH = 7.3, 37° C., [GSH] = 2 mM
Method: as §1, §2, §3, §4

endothelial cells [6] = assay: Viability of endothelial cells subjected to linoleic acid hydroperoxide (MTT); type: cell-based, human; details: compound 4 μM, 1 h; 18:2-OOH 50 μM, 2 h; MTT after about twenty hours
Method: Human endothelial cells were cultivated at 37° C. in multi-hole plates or Petri dishes in an atmosphere of saturated humidity constituted by a gaseous mixture of 95% air and 5% of CO2. The culture medium was constituted by a M 199 medium, pH=7.4, containing 20% of foetal calf serum, 2 mM of L-glutamine, 100 U/ml of penicillin, 100 μg/ml of streptomycin and 1% by volume of a medium supplement containing heparin and a cell growth factor.
When the cells were near confluence, they were incubated for one hour in the presence or absence of one of the following compounds: BXT-51056, BXT-51072, BXT-51077, or ebelsen. Each of these compounds was incorporated at 4 μM into culture medium containing 2% of foetal calf serum, all other conditions being the same.
After washing the cells three successive times with a PBS buffer, they were incubated in the presence or absence (control) of linoleic acid hydroperoxide (18:2-OOH), 50 μM, in the culture medium defined above. […] After about twenty hours, the viability of the cells was determined by measurement using the bromide of 3-(4,5-dimethylthiazol-2-yl)-2,5-diphenyl-2H-tetrazolium (MTT).
The results are shown in FIG. 1, expressed as the survival percentage with respect to the control and where the reference is shown by the black rectangle.

endothelial cells [7] = assay: Adhesion of PMN to endothelial cells induced by TNF-α (myeloperoxidase); type: cell-based, human; details: compound 10 μM vs pentoxifylline 50 μM; TNF-α 1 ng/ml
Method: (§5) Human endothelial cells were cultivated under the same conditions as those described for Example 18.
(§6) When the cells were near confluence, they were incubated for one hour in the presence or absence of the following compounds: BXT-51072, BXT-51077 or pentoxifylline. Compounds BXT-51072 and BXT-51077, each at 10 μM, and the pentoxifylline, at 50 μM, were incorporated in culture medium containing 2% of foetal calf serum, all other conditions being the same. […] Myeloperoxidase (MPO), an enzyme specifically contained in PMNs, was then measured in the cell lysates obtained to evaluate adhesion of the PMNs on the endothelial cells. The von Willebrandt factor (vWf) liberated in the culture medium by the endothelial cells was measured after three and a half hours of incubation, as a label of the changes in the cells.
(§7) Incubation of the endothelial cells in the presence of PMN and TNF-α led to a very significant increase in the quantity of MPO and vWf with respect to the respective controls (PMN alone, and endothelial cells alone respectively), meaning the adhesion of activated PMNs to the endothelial cells and changes in the latter.
(§8) They are expressed as the percentage inhibition by referring the MPO and vWf measurements to the respective concentrations of MPO and vWf determined when the endothelial cells were incubated with TNF-α and PMNs.

endothelial cells [8] = assay: Endothelial changes induced by PMN and TNF-α (von Willebrandt factor release); type: cell-based, human; details: BXT compounds 10 μM, pentoxifylline 50 μM; TNF-α 1 ng/ml; 3.5 h
Method: as §5, §6, §7, §8

interleukin 8 (IL-8) = assay: Endothelial production of interleukin 8 induced by TNF-α; type: cell-based, human; details: 4 h
Method: as §5
When the cells were near confluence, they were incubated for one hour in the presence or absence of the following compounds: BXT-51072, BXT-51077 or ebselen. Each of these compounds was incorporated into culture medium containing 2% of foetal calf serum at 10 μM, all other conditions being the same. […] After four hours of incubation, the interleukin 8 (IL-8) in the culture medium was measured.

[9] = test system: von Willebrandt factor (vWf); assay: Protection of endothelial cells against interleukin 1 (von Willebrandt factor release); type: cell-based; details: Homo sapiens, Endothelial cell, 4 h, read-out: inhibition of increase in vWf liberation induced by IL-1
Method: as §5
When the cells were near confluence, they were incubated for one hour in the presence or absence of the following compounds: BXT-51072, BXT-51077, each of these compounds being at 10 μM in culture medium containing 2% of foetal calf serum , all other conditions being the same. The cells were then washed three times with a PBS buffer. The cells which had not been pretreated by a compound were incubated in the presence or absence (control) of interleukin 1α (IL-1α), at 50 U/ml, in the same culture medium. […] After four hours of incubation, the von Willebrandt factor (vWf) in the culture medium was measured.

[10] = in the presence of excess glutathione GSH; cited from earlier work
[11] = prior art, Wendel 1984; Mercurio and Combs 1986; cited from earlier work

CC1(C)N[Se]c2ccccc21 [BXT-51056, 3,3-dimethyl-benzisoselenazoline]
activity at 1 µM (endothelial cells [1]): > 80%
toxicity to endothelial cells (endothelial cells [2]): not toxic to endothelial cells

CC1(C)N[Se](=O)c2ccccc21 (centres unmarked) [BXT-51059]
Glutathione peroxidase activity, t--BuOOH [3]: 0.2 nmoles of hydroperoxide reduced/min
Glutathione peroxidase activity, H2 O2 [4]: 0.1 nmoles of hydroperoxide reduced/min
Glutathione peroxidase activity, 18:2-OOH [5]: 0.8 nmoles of hydroperoxide reduced/min

CC1(C)N[Se]c2ccc([N+](=O)[O-])cc21 [BXT-51075, 3,3'-dimethyl-5-nitro-benzisoselenazoline]
Glutathione peroxidase activity, t--BuOOH [3]: 3,2 nmoles of hydroperoxide reduced/min
Glutathione peroxidase activity, H2 O2 [4]: 5,9 nmoles of hydroperoxide reduced/min

COc1ccc2c(c1)C(C)(C)CN[Se]2 [BXT-51077, 4,4-dimethyl-6-methoxy-benzisoselenazine]
Glutathione peroxidase activity, t--BuOOH [3]: 35.4 nmoles of hydroperoxide reduced/min
protection of the cells from death induced by 18:2-OOH (endothelial cells [6]): significantly protected the cells from death
inhibition of the adhesion of PMN induced by TNF-α (MPO) (endothelial cells [7]): inhibit the adhesion of PMN induced by TNF-α, much more effectively than pentoxifylline
protection of endothelial cells against the deleterious effects of activated PMNs (vWf) (endothelial cells [8]): protect endothelial cells against the deleterious effects of activated PMNs
inhibition at 10 µM (interleukin 8 (IL-8); Homo sapiens, read-out: inhibition of IL-8 production induced by TNF-α): ≥ 70%
inhibition at 10 µM [9]: > 70%

CCN1CC(C)(C)c2ccccc2[Se]1 [BXT-51078, 4,4-dimethyl-2-ethyl-benzisoselenazine]
Glutathione peroxidase activity, t--BuOOH [3]: 16.5 nmoles of hydroperoxide reduced/min

O=c1c2ccccc2[se]n1-c1ccccc1 [ebselen, 2-phenyl-3-one-benzisoselenazoline(2H)]
inhibition of IL-8 production induced by TNF-α (in words) (interleukin 8 (IL-8); compound 10 μM, TNF-α 0.1, 1 or 10 ng/ml): no inhibiting effect
water solubility of the derivative produced with excess glutathione GSH [10]: only very slightly soluble in water
toxic effect [11]: do not appear to have a major toxic effect
